Assay results reported in the Kinase Knowledgebase extract (Sharma et al. 2016).
pIC50: −log10 of the molar value. Where “and” joins values, the source holds several entries; their conditions need not be identical. Equal values may be shown once.

Tests used:
[1] = target: EGFR (Human), P00533 [T790M/L858R]; test: Cell-Based Assay; details: h1975
[2] = target: EGFR (Human), P00533 [Inhibition of EGFR Dependent Proliferation of HCC827(.Delta.746-750) cells]; test: Cell-Based Assay
[3] = target: EGFR (human), P00533 [WT]; details: a431
Sequence of EGFR (human), P00533 [WT] (P00533 whole entry, looked up): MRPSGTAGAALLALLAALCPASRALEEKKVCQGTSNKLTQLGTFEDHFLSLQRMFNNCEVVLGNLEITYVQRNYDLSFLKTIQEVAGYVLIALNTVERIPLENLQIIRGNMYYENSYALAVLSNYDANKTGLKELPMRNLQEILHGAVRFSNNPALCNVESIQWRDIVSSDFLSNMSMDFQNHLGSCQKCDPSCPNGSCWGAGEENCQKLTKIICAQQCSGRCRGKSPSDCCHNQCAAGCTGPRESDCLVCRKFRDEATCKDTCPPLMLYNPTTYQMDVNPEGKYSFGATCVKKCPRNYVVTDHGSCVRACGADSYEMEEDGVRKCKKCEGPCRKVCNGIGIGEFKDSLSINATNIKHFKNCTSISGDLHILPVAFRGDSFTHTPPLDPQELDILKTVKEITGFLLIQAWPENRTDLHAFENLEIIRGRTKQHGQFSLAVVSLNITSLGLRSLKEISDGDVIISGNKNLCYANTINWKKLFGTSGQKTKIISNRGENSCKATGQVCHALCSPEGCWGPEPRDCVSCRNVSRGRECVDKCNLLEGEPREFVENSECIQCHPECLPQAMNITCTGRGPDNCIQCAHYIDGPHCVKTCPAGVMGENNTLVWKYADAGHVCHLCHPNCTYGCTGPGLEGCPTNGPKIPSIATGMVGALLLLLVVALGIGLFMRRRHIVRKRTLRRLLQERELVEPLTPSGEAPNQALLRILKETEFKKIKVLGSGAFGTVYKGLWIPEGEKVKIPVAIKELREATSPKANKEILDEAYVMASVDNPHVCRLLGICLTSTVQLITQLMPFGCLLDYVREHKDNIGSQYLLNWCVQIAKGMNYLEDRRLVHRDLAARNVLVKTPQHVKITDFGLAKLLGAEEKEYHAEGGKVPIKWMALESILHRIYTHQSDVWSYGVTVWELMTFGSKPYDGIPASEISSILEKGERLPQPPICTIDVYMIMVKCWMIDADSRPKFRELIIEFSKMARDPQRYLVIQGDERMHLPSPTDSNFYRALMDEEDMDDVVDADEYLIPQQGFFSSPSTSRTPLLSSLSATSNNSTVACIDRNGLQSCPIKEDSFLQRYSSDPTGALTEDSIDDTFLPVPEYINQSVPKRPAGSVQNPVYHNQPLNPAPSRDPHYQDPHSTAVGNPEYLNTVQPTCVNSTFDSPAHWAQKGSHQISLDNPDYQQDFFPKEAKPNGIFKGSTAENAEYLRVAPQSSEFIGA

[4] = target: EGFR (Human), P00533 [Assessment of Phosphorylation of EGFR(.Delta.746-750) in HCC827 Cells]; test: Cell-Based Assay
Sequence of EGFR (Human), P00533 [Assessment of Phosphorylation of EGFR(.Delta.746-750) in HCC827 Cells] (P00533 whole entry, looked up, stated change not applied): as the sequence (P00533 whole entry, looked up) above

[5] = target: EGFR (human), P00533 [WT]; test: Cell-Based Assay; details: a431
[6] = target: EGFR (Human), P00533 [T790M/L858R]; test: Cell-Based Assay; details: h1975; remark: listed apart in the source

Sequence of EGFR (Human), P00533 [T790M/L858R] (P00533 whole entry T790M/L858R, looked up): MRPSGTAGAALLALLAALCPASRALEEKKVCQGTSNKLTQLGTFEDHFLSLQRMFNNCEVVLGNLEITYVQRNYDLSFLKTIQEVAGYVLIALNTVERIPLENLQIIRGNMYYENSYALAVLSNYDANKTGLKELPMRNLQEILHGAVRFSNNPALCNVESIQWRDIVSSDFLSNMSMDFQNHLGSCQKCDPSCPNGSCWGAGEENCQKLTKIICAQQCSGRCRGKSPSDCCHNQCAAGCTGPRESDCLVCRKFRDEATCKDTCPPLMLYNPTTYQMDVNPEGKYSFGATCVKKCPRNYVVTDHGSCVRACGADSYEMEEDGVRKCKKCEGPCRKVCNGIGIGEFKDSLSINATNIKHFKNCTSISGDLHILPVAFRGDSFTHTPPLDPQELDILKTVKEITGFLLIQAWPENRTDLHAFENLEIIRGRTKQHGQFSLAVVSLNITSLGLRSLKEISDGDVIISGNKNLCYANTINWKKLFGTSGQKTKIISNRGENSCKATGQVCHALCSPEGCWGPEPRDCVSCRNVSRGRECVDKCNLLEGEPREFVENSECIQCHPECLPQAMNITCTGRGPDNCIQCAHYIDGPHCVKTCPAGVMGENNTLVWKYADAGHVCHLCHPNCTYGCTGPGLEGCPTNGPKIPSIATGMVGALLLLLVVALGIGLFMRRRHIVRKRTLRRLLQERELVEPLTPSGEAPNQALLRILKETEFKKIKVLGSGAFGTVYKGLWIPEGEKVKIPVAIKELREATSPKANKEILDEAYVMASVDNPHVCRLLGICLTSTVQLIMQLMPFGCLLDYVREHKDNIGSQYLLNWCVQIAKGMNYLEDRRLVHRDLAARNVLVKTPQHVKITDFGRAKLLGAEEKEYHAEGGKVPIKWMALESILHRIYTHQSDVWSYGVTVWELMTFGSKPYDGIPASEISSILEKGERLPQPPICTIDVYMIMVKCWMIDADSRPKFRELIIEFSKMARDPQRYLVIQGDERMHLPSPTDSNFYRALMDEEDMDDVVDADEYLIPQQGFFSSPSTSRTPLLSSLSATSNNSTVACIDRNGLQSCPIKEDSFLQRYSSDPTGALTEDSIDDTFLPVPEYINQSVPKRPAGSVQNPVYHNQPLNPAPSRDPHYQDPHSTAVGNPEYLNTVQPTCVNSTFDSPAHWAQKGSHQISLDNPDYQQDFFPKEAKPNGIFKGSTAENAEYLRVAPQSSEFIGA
Sequence of EGFR (Human), P00533 [Inhibition of EGFR Dependent Proliferation of HCC827(.Delta.746-750) cells] (P00533 whole entry, looked up, stated change not applied): as the sequence (P00533 whole entry, looked up) above

Row | pIC50 [1] | pIC50 [2] | pIC50 [3] | pIC50 [4] | pIC50 [5] | pIC50 [6] | SMILES
1 | 6.04 |  |  |  |  |  | C=CC(=O)Nc1cccc(-n2c(=O)cc(C)c3cnc(Nc4ccnn4CC)nc32)c1
2 | 8.33 | 7.34 | 6.08 |  |  |  | C=CC(=O)Nc1cccc(-n2c(=O)cc(C)c3cnc(Nc4ccc(OCCN(C)C)cc4Cl)nc32)c1
3 |  |  |  | 8.10 |  |  | C=CC(=O)Nc1cccc(-n2c(=O)cc(C)c3cnc(Nc4ccc(N5CCN(C)CC5)cc4OC)nc32)c1
4 | 8.05 | 6.63 | 5.37 |  |  |  | C=CC(=O)Nc1cccc(-n2c(=O)cc(C)c3cnc(Nc4ccc(N5CCN(C(C)=O)CC5)cc4Cl)nc32)c1
5 | 7.38 | 6.60 | 5.62 |  |  |  | C=CC(=O)Nc1cccc(-n2c(=O)cc(C)c3cnc(Nc4ccc(OCCOC)cc4)nc32)c1
6 | 6.57 | 7.21 | 6.70 |  |  |  | C=CC(=O)Nc1cccc(-n2c(=O)c(OC)cc3cnc(Nc4ccc(N5CCN(C)CC5)cc4OC)nc32)c1
7 | 6.06 | 5.83 | 4.61 |  |  |  | C/C=C/C(=O)Nc1cccc(-n2c(=O)cc(C)c3cnc(Nc4ccc(OCCN(C)C)cc4OC)nc32)c1
8 | 8.40 | 7.55 | 5.62 | 7.77 | 6.29 | 8.40 | C=CC(=O)Nc1cccc(-n2c(=O)cc(C)c3cnc(Nc4ccc(OCCN(C)C)cc4OC)nc32)c1
9 | 7.96 | 7.57 |  |  |  |  | C=CC(=O)Nc1cccc(-n2c(=O)cc(C)c3cnc(Nc4ccc(C5CCN(C)CC5)cc4)nc32)c1
10 | 7.55 | 7.07 | 5.90 |  |  |  | C=CC(=O)Nc1cccc(-n2c(=O)cc(C)c3cnc(Nc4ccc(N5CCN(C)CC5)c(F)c4)nc32)c1
11 | 7.21 | 7.11 | 4.78 |  |  |  | C=CC(=O)Nc1cccc(-n2c(=O)cc(C)c3cnc(Nc4cnn(C)c4)nc32)c1
12 | 6.74 |  |  |  |  |  | C=CC(=O)Nc1cccc(-n2c(=O)cc(C)c3cnc(Nc4ccc(C5CCNCC5)cc4)nc32)c1
13 | 8.05 | 7.77 and 8.00 | 5.99 |  |  |  | C=CC(=O)Nc1cccc(-n2c(=O)cc(C)c3cnc(Nc4ccc(OCCN(C)C)cc4)nc32)c1
14 | 6.79 | 6.52 |  |  |  |  | C=CC(=O)Nc1cccc(-n2c(=O)cc(C)c3cnc(Nc4cnn(CCN(C)C)c4)nc32)c1
15 | 7.28 |  |  |  |  |  | C=CC(=O)Nc1cccc(-n2c(=O)cc(C)c3cnc(Nc4cn(C)nc4C(F)(F)F)nc32)c1
16 | 8.40 | 7.74 | 6.60 |  |  |  | C=CC(=O)Nc1cccc(-n2c(=O)c(Cc3ccccc3)cc3cnc(Nc4ccc(N5CCN(C)CC5)cc4OC)nc32)c1
17 | 7.46 | 6.32 | 5.77 |  |  |  | C=CC(=O)Nc1cccc(-n2c(=O)cc(C)c3cnc(Nc4ccc(N(C)CCO)cc4OC)nc32)c1
18 | 7.89 | 7.68 | 5.51 |  |  |  | C=CC(=O)Nc1cccc(-n2c(=O)cc(C)c3cnc(Nc4ccc(N(C)CCN(C)C)cc4Cl)nc32)c1
19 | 7.99 |  | 5.68 |  |  |  | C=CC(=O)Nc1cccc(-n2c(=O)cc(C)c3cnc(Nc4ccc(O[C@H]5CCN(C)C5)cc4OC)nc32)c1
20 | 7.80 | 7.66 | 5.90 |  |  |  | C=CC(=O)Nc1cccc(-n2c(=O)cc(C)c3cnc(Nc4cn(C)nc4C)nc32)c1
21 | 6.51 | 5.98 | 5.74 |  |  |  | C=CC(=O)Nc1cccc(-n2c(=O)cc(C)c3cnc(Nc4cn(C5CCN(C)CC5)nc4C)nc32)c1.C=CC(=O)Nc1cccc(-n2c(=O)cc(C)c3cnc(Nc4cnn(C5CCN(C)CC5)c4C)nc32)c1

Row | pIC50 [1] | pIC50 [2] | pIC50 [3] | pIC50 [4] | pIC50 [5] | pIC50 [6] | SMILES
22 | 6.75 | 6.40 | 5.18 |  |  |  | C=CC(=O)Nc1cccc(-n2c(=O)cc(C)c3cnc(Nc4ccc(N5CCC(C(C)(C)O)CC5)cc4)nc32)c1
23 | 6.89 | 6.57 | 5.85 |  |  |  | C=CC(=O)Nc1cccc(-n2c(=O)cc(C)c3cnc(Nc4ccc(N(C)CCN5CCCC5)cc4OC)nc32)c1
24 |  |  |  | 8.30 |  |  | C=CC(=O)Nc1cccc(-n2c(=O)ccc3cnc(Nc4ccc(NC5CN(CCF)C5)cc4OC)nc32)c1
25 | 8.00 | 7.39 | 5.86 |  |  |  | C=CC(=O)Nc1cccc(-n2c(=O)c(OC)c(C)c3cnc(Nc4ccc(N5CCN(C)CC5)cc4OC)nc32)c1
26 | 7.80 | 7.52 | 5.54 |  |  |  | C=CC(=O)Nc1cccc(-n2c(=O)cc(C)c3cnc(Nc4cn(C)nc4Cl)nc32)c1
27 | 7.62 | 7.08 | 6.05 |  |  |  | C=CC(=O)Nc1cccc(-n2c(=O)cc(C)c3cnc(Nc4ccc(N(C)CCN(C)C)cc4OC(F)F)nc32)c1
28 | 6.47 | 5.86 | 4.75 |  |  |  | C/C=C/C(=O)Nc1cccc(-n2c(=O)cc(C)c3cnc(Nc4ccc(N(C)CCN(C)C)cc4OC)nc32)c1
29 | 7.00 |  |  |  |  |  | C=CC(=O)Nc1cccc(-n2c(=O)cc(C)c3cnc(Nc4cnn(C(C)C)c4)nc32)c1
30 | 6.76 |  |  |  |  |  | C=CC(=O)N1CC[C@H](Cn2c(=O)cc(C)c3cnc(Nc4ccc(N5CCN(C)CC5)cc4OC)nc32)C1
31 | 7.57 | 6.80 | 5.81 |  |  |  | C=CC(=O)Nc1cccc(-n2c(=O)cc(C)c3cnc(Nc4ccc(OCCCN(C)C)cc4)nc32)c1
32 | 8.24 | 7.44 | 6.19 |  |  |  | C=CC(=O)Nc1cccc(-n2c(=O)cc(C)c3cnc(Nc4ccc(N5CCN(C)CC5)c(C)c4)nc32)c1
33 | 8.15 | 8.70 |  |  |  |  | C=CC(=O)Nc1cccc(-n2c(=O)ccc3cnc(Nc4cn(C)nc4C)nc32)c1
34 | 8.10 | 7.64 |  |  |  |  | C=CC(=O)Nc1cccc(-n2c(=O)cc(C)c3cnc(Nc4ccc(N(C)CCN(C)C)cc4)nc32)c1
35 | 6.15 |  |  |  |  |  | C=CC(=O)Nc1cccc(-n2c(=O)cc(C)c3cnc(Nc4cccc(F)c4)nc32)c1
36 | 6.12 |  |  |  |  |  | C=CC(=O)Nc1cccc(-n2c(=O)cc(C)c3cnc(Nc4cc(C)nn4C)nc32)c1
37 | 7.74 | 7.31 | 5.89 |  |  |  | C=CC(=O)Nc1cccc(-n2c(=O)cc(C)c3cnc(Nc4cn([C@H]5CCN(C)C5)nc4C)nc32)c1
38 | 6.97 | 6.40 | 5.37 |  |  |  | C=CC(=O)Nc1cccc(-n2c(=O)cc(C)c3cnc(Nc4ccc(N(C)CCN5CCCC5=O)cc4OC)nc32)c1
39 | 8.05 | 6.91 | 5.94 |  |  |  | C=CC(=O)Nc1cccc(-n2c(=O)cc(C)c3cnc(Nc4ccc(N(C)CCN(C)C)cc4C)nc32)c1
40 | 7.29 | 7.12 | 5.87 |  |  |  | C=CC(=O)Nc1cccc(-n2c(=O)cc(C)c3cnc(Nc4ccc(OCCN(C)C)cc4F)nc32)c1
41 |  |  |  | 8.47 |  |  | C=CC(=O)Nc1cccc(-n2c(=O)ccc3cnc(Nc4ccc(N5CCN(C)CC5)cc4OC)nc32)c1
42 | 8.10 | 7.66 | 5.85 | 7.62 | 6.16 | 8.11 | C=CC(=O)Nc1cccc(-n2c(=O)cc(C)c3cnc(Nc4ccc(N(C)CCN(C)C)cc4OC)nc32)c1
